In US20130150377A1, “Tetrahydropyridinyl and Dihydropyrrolyl Compounds and the Use Thereof” (SHIONOGI & CO., LTD., priority 2008, published 2013) one finds IC50 data, which are given here for four compounds.

By pIC50 is commonly meant the negative decadic logarithm of the IC50, by convention in mol/L.

pIC50: −log10 of the molar value. Where only a bound is given, the exact number is not on record here.

Test [1] addresses T1, N-type calcium channel (NTCC) (Homo sapiens, UniProt Q00975).
T1 construct: endogenous in cells; host or cells: differentiated IMR32 cells (ATCC)
The test is described as follows: FLIPR calcium mobilization assay for N-type calcium channel (differentiated IMR32 cells). Type of test: cell-based. The following applies: N-type calcium channel blockers, calcium mobilization in vitro assay. How it is done:
Cell maintenance and differentiation. Unless noted otherwise, cell culture reagents were purchased from Mediatech of Herndon, Md. IMR32 cells (American Type Culture Collection, ATCC, Manassas, Va.) were routinely cultured in growth medium consisting of minimum essential medium containing 10% fetal bovine serum (FBS, Hyclone, Logan, Utah), 100 U/mL penicillin, 100 μg/mL streptomycin, 2 mM L-glutamine, 1 mM sodium pyruvate, and 1×MEM non-essential amino acids. 80-90% confluent flasks of cells were differentiated using the following differentiation medium: Growth medium plus 1 mM dibutyryl cyclic AMP (Sigma, St. Louis, Mo.), and 2.5 μM bromodeoxyuridine (Sigma). Cells were differentiated for 8 days by replacing differentiation medium every 2-3 days.
FLIPR Calcium Mobilization Assay for N-type Calcium Channel.
One day prior to performing this assay, differentiated IMR32 cells were treated with 1× CellStripper, and seeded on poly-D-lysine-coated 96-well clear-bottom black plates (Becton Dickinson, Franklin Lakes, N.J.) at 200,000 cells/well. On the day of the assay, the cell plates were washed with IMR32 buffer (127 mM NaCl, 1 mM KCl, 2 mM MgCl2, 700 μM NaH2PO4, 5 mM CaCl2, 5 mM NaHCO3, 8 mM HEPES, 10 mM glucose, pH 7.4), then pre-stimulated with KCl and loaded as follows: […] of IMR32 buffer, 0.05 mL of each compound tested diluted in IMR32 buffer containing 20 μM nitrendipine (Sigma), and 0.1 mL KCl dissolved in IMR32 buffer, plus Fluo-4 were added (3 μM final concentration, Molecular Probes, Eugene, Oreg.). Final test compound concentrations ranged from about 846 pM to about 17 μM, final nitrendipine concentration was 5 μM, and final KCl concentration was 90 mM. After 1 hour, the cells were washed twice with 0.05 mL of each compound tested in nitrendipine-containing IMR32 buffer (no KCl or Fluo-4), and then replaced with 0.1 mL of each compound tested in nitrendipine-containing IMR32 buffer. Plates were then transferred to a Fluorimetric Imaging Plate Reader (FLIPR^96, Molecular Devices, Inc., Sunnyvale, Calif.) for assay. The FLIPR measured basal Fluo-4 fluorescence for 315 seconds (i.e., 5 minutes and 15 seconds), then added 0.1 mL KCl agonist dissolved in IMR32 buffer and measured fluorescence for another 45 seconds. Final test compound concentrations on the cells after FLIPR read ranged from about 846 pM to about 17 μM, final nitrendipine concentration was 5 μM, and final KCl concentration was 90 mM. Data were collected over the entire time course and analyzed using Excel, Graph Pad Prism (version 3.02, Graph Pad, San Diego, Calif.), or an in-house non-linear regression analysis software.

Test [2] concerns the target T2, L-type calcium channel (LTCC) subunits (α1c, α2δ, and β1) (Rattus norvegicus, UniProt P22002).
T2 construct: expressed in transfected cells; pcDNA6.2DEST α1c, pcDNA3.2DEST β1, pcDNA3.1-Zeo α2δ)
The test is described as follows: FLIPR calcium mobilization assay for L-type calcium channel (HEK293 cells expressing recombinant LTCC subunits). The class given is cell-based. The following applies: calcium mobilization assay for L-type calcium channel blocking activity. How it is done: Recombinant human embryonal kidney cells (HEK293, ATCC) stably transfected with either N-type calcium channel (NTCC) subunits (α1b, α28, and β3) or L-type calcium channel (LTCC) subunits (α1c, α2δ, and […]) were routinely cultured in growth medium consisting of Dulbecco's Modified Eagles Medium containing 10% FBS, 100 U/mL penicillin, 100 μg/mL streptomycin, 4 mM L-glutamine, 500 μg/mL geneticin (G418), 20 μg/mL Blasticidin S (InVivogen, San Diego, Calif.) and 500 μg/mL zeocin (InVivogen).
FLIPR Calcium Mobilization Assay for L-type Calcium Channel.
One day prior to performing this assay, HEK293 cells stably expressing recombinant rat L-type calcium channel (LTCC) subunits (α1c, α2δ, and β1) were trypsinized, then seeded on poly-D-lysine-coated 96-well clear-bottom black plates (Becton Dickinson, Franklin Lakes, N.J.) at 75,000 cells/well. […] The FLIPR measured basal Fluo-4 fluorescence for 15 seconds, then added 0.05 mL of each compound tested diluted in LTCC assay buffer at final concentrations ranging from about 846 pM to about 17 μM. Fluo-4 fluorescence was then measured for 5 minutes. 0.1 mL KCl agonist dissolved in LTCC assay buffer was, then added to the cells to produce a final concentration of 90 mM KCl, and fluorescence was measured for another 45 seconds. […]
(A change in cytosolic calcium serves as a functional read-out for many receptors and channels.)

T1 sequence (Q00975 whole entry): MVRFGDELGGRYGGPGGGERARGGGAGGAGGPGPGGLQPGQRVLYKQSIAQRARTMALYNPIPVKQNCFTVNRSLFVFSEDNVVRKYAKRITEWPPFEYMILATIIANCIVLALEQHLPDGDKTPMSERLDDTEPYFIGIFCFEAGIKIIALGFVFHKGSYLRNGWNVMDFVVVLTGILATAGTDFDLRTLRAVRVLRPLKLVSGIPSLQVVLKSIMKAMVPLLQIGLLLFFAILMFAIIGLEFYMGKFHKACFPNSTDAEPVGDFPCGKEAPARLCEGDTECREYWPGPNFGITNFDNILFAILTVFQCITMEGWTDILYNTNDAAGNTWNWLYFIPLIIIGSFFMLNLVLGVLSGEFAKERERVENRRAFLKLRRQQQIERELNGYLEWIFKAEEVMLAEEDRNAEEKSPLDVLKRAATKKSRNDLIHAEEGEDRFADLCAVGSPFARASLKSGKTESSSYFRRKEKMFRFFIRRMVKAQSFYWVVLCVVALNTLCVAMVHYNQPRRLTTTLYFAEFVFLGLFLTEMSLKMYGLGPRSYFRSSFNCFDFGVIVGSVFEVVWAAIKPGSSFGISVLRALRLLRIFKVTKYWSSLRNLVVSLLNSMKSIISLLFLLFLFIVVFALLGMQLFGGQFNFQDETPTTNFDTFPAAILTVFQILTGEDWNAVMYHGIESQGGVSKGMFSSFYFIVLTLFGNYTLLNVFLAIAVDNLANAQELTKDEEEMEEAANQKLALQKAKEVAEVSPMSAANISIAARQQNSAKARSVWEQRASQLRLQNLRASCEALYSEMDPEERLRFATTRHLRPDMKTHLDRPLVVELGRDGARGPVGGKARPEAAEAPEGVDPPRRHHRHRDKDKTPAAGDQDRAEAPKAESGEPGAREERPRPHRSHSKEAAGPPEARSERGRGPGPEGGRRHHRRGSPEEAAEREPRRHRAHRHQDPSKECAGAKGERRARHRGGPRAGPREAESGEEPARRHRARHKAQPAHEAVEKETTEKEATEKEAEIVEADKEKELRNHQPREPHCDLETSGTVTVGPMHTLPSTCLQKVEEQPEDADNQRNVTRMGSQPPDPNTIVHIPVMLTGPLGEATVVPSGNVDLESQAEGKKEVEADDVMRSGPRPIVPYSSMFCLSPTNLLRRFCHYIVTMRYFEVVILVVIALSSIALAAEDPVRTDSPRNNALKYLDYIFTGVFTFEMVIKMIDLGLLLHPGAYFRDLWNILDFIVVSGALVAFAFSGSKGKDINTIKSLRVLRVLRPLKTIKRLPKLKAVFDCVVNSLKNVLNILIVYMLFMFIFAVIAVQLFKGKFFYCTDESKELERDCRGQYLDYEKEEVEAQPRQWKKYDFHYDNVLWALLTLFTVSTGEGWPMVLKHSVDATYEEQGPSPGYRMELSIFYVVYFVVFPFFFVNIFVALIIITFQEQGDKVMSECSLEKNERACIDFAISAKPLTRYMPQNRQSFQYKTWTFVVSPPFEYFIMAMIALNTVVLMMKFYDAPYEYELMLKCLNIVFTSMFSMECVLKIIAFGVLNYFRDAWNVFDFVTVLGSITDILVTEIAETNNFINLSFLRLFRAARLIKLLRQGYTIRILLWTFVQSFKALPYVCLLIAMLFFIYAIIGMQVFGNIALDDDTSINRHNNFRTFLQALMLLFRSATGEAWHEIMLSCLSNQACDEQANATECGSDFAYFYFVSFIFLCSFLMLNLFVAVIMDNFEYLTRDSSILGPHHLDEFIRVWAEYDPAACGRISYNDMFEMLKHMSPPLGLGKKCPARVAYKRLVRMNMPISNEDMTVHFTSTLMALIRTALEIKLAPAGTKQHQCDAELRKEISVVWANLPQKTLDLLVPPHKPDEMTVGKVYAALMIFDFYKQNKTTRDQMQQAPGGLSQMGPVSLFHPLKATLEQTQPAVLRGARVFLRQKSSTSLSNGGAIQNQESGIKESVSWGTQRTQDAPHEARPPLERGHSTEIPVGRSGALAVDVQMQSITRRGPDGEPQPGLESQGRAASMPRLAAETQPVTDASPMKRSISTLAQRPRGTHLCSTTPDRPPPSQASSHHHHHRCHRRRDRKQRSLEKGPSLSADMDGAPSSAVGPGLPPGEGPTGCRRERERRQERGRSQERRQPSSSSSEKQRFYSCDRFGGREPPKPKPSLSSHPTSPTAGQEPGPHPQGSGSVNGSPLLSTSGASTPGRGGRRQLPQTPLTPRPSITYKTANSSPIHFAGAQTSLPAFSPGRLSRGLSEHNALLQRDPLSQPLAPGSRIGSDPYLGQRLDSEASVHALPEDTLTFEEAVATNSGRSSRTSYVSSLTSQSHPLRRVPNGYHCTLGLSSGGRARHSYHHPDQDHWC
T1 sequence (P54289 25-956 partner limits assumed): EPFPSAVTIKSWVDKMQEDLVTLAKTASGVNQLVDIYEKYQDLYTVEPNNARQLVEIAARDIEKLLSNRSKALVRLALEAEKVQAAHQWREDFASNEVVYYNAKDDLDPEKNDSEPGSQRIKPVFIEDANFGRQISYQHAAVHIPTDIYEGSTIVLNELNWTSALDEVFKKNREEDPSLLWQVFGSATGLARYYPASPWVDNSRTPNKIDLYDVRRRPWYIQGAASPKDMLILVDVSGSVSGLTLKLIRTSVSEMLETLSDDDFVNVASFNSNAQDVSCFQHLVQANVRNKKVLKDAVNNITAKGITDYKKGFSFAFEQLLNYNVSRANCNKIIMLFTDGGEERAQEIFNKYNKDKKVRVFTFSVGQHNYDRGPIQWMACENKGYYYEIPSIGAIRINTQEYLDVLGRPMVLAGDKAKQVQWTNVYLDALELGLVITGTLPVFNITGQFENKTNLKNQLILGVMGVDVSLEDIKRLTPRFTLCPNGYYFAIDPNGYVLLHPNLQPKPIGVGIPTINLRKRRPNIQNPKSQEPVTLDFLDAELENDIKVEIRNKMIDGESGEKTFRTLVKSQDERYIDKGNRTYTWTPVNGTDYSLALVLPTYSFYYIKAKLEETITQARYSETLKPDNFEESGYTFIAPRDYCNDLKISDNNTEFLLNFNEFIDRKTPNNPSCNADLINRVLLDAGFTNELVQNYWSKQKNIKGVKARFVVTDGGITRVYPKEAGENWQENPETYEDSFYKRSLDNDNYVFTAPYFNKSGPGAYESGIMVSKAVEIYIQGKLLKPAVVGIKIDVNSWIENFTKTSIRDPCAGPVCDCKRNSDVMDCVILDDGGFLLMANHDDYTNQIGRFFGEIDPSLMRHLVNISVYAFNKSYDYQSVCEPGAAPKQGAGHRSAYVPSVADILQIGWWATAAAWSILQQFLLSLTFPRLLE
T1 sequence (P54289 957-1103 partner limits assumed): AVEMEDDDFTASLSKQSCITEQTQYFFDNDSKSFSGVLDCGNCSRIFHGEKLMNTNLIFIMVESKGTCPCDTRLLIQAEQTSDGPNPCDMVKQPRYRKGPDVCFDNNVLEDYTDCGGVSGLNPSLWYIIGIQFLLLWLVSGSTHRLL
T1 sequence (P54284 whole entry partner): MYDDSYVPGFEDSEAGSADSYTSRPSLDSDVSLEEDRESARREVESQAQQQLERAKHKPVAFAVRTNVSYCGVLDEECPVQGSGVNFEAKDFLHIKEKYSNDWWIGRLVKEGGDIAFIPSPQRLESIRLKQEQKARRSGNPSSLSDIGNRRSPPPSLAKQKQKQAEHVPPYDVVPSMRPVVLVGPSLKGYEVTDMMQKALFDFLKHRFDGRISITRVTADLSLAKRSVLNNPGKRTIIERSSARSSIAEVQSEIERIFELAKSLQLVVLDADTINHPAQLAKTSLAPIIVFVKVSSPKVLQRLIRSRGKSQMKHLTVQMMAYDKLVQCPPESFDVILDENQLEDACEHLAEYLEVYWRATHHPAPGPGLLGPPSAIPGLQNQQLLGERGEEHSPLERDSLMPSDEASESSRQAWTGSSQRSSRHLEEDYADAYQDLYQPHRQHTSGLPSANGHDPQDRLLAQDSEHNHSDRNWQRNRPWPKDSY

For the compound `O=C(NC1CC1)c1cccc(C2=CCN(Cc3ccc(OC(F)(F)F)cc3)CC2)n1` [Compound 9, 1′-(4-Trifluoromethoxybenzyl)-1′,2′,3′,6′-tetrahydro-[2,4′]bipyridinyl-6-carboxylic acid cyclopropylamide], the pIC50 in test [1] is 6.03; in test [2], below 4.70.

Turning to `O=C(NC1CC1)c1cccc(C2=CC(=O)N(S(=O)(=O)c3cccc(C(F)(F)F)c3)CC2)n1` [Compound 45, 6′-Oxo-1′-(3-trifluoromethylbenzenesulfonyl)-1′,2′,3′,6′-tetrahydro-[2,4′]bipyridinyl-6-carboxylic acid cyclopropylamide], the pIC50 in test [1] was 7.70; in test [2], below 4.70.

`O=C(Nc1cccc(C2=CCN(S(=O)(=O)c3cccc(C(F)(F)F)c3)CC2)n1)C1CC1` [Compound 82, 1′-(3-Trifluoromethylbenzenesulfonyl)-1′,2′,3′,6′-tetrahydro[2,4′]bipyridinyl-6-cyclopropanoylamine]: in test [1], the pIC50 was 6.52.

For the compound `O=C(NC1CC1)c1cccc(C2=CCN(S(=O)(=O)Nc3cccc(C(F)(F)F)c3)CC2)n1` [Compound 86, 1′-[(3-Trifluoromethylbenzene)aminosulfonyl]-1′,2′,3′,6′-tetrahydro-[2,4′]bipyridinyl-6-carboxylic acid cyclopropylamide], the negative logarithm of the IC50 (pIC50) in test [1] is 5.98.
